target: T1, Angiotensin II-Rezeptor (Rattus norvegicus, UniProt P25095); assay: Angiotensin II receptor binding: displacement of [125I]-angiotensin II in rat lung homogenate; set-up: species or system Ratte; settings: rat lung (Rattenlunge) homogenate, 50 pM [125I]-Angiotensin II, 60 min at 37°C, IC50 from dose-response curve; read-out: IC₅₀
T1 construct: Das Gewebe (Rattenlunge) wird in Tris-Puffer; from tissue; host or cells: rat lung homogenate (membrane pellet, 20,000 x g)
T1 sequence (P25095 1-359): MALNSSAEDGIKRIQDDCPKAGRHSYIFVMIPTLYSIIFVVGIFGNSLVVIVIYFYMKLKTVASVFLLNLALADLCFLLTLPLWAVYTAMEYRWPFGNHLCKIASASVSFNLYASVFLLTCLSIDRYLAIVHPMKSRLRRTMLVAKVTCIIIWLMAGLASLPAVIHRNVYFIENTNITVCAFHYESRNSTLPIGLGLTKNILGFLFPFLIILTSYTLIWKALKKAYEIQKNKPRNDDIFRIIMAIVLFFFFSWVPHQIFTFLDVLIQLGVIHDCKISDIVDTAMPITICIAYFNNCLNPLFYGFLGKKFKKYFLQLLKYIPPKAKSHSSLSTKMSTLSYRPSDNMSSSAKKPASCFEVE
Experimental: Methodenbeschreibung Angiotensin II-Rezeptorbindung
Das Gewebe (Rattenlunge) wird in Tris-Puffer (50 mMol Tris, 150 mMol NaCl, 5 mMol EDTA, pH 7.40) homogenisiert und zweimal je 20 Min. bei 20.000 x g zentrifugiert. Das endgültige Pellet wird in Inkubations-Puffer (50 mMol Tris, 5 mMol MgCl₂, 0,2 % BSA, pH 7,40) 1:75, bezogen auf das Feuchtgewicht des Gewebes, resuspendiert. Je 0,1 ml Homogenat wird für 60 Min. bei 37°C mit 50 pM [125^I]-Angiotensin II (NEN, Dreieich, FRG) und steigenden Konzentrationen der Testsubstanz in einem Gesamtvolumen von 0,25 ml inkubiert. Die Inkubation wird durch rasche Filtration durch Glasfiber-Filtermatten beendet. Die Filter werden je 4 ml eiskaltem Puffer (25 mMol Tris, 2.5 mMol MgCl₂, 0,1 % BSA, pH 7,40) gewaschen. Die gebundene Radioaktivität wird in einem Gamma-Counter ermittelt. Aus der Dosis-Wirkungskurve wird der entsprechende IC₅₀-Wert ermittelt.

| SMILES | IC50 [nM] |
| --- | --- |
| Cc1cc(-c2cn3ccccc3n2)cc2c1nc(C1CC1)n2Cc1ccc(-c2ccccc2C(=O)O)cc1 [Substanz C, 4'-[(2-Cyclopropyl-4-methyl-6-(imidazo[1,2-a]pyridin-2-yl)-benzimidazol-1-yl)-methyl]-biphenyl-2-carbonsäure] | 1.7 |
| CCc1nc2c(C)cc(-c3nc4cc(F)ccc4n3C)cc2n1Cc1ccc(-c2ccccc2C(=O)O)cc1 [Substanz A, 4'-[(2-Ethyl-4-methyl-6-(1-methyl-5-fluor-benzimidazol-2-yl)-benzimidazol-1-yl)-methyl]-biphenyl-2-carbonsäure] | 7.4 |
| CCOc1nc2c(C)cc(-c3nc4ccccc4n3C)cc2n1Cc1ccc(-c2ccccc2-c2nnn[nH]2)cc1 [Substanz E, 4'-[(2-Ethoxy-4-methyl-6-(1-methyl-benzimidazol-2-yl)-benzimidazol-1-yl)-methyl]-2-(1H-tetrazol-5-yl)-biphenyl] | 3.3 |

These reach a lower IC50. Values come first.

| IC50 [nM] | SMILES |
| --- | --- |
| 1.3 | Cc1cc(-c2cn3c(n2)CCCC3)cc2c1nc(C1CC1)n2Cc1ccc(-c2ccccc2C(=O)O)cc1 [Substanz D, 4'-[(2-Cyclopropyl-4-methyl-6-(5,6,7,8-tetrahydro-imidazo[1,2-a]pyridin-2-yl)-benzimidazol-1-yl)-methyl]-biphenyl-2-carbonsäure] |
| 0.9 | CCCc1nc2c(C)cc(N3CCCCS3(=O)=O)cc2n1Cc1ccc(-c2ccccc2C(=O)O)cc1 [Substanz B, 4'-[(2-n-Propyl-4-methyl-6-(butansultam-1-yl)-benzimidazol-1-yl)-methyl]-biphenyl-2-carbonsäure] |

From EP0581166A1, “Benzimidazoles, process for their preparation and their use as angiotensin-II antagonists” (Dr. Karl Thomae GmbH, priority 1992, dated 1994)
